Results on 14 compounds are retold here after patent US20230295118A1 (EnhancedBio Inc., priority 2022, published 2023).

What all share (assay type): cell-based
The target of one assay is T1, CDK6 (Homo sapiens, UniProt Q00534).
T1 construct: endogenous in cells
Briefly: CDK6 degradation (DC50, Dmax).

Assay [1] relates to mantle cell lymphoma cell (Mino or JeKo-1). Briefly: Antiproliferative effect, MTS cell viability assay. The note with it: 72 h; for IC50: mantle cell lymphoma cell (Mino or JeKo-1), MTS assay, read-out: IC50 (anti-proliferation). An outline of the steps: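 MTS read-out (formazan absorbance at 490 nm) after 72 h exposure of Mino cells to 0–1 μM compound (0.0001, 0.001, 0.01, 0.1, 1 μM). Palbociclib and abemaciclib served as positive controls.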

For another assay, the target named is T2, CDK4 (Homo sapiens, UniProt P11802).
T2 construct: endogenous in cells
T2 sequence (P11802 whole entry): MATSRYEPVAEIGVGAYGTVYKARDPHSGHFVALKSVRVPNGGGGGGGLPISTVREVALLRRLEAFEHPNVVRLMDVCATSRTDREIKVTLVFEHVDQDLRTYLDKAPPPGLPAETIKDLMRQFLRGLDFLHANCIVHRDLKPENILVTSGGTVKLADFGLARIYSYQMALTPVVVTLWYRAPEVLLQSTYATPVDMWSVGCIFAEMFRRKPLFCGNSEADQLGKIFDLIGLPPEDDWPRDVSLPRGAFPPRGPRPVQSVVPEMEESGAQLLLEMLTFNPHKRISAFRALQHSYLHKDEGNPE
Briefly: CDK4 degradation (DC50, Dmax).

Molecules are shown by their SMILES.

Broadly, the DC50 is the midpoint of the concentration-degradation curve. Broadly, the Dmax is the greatest extent of degradation seen.

T1 sequence (Q00534 whole entry): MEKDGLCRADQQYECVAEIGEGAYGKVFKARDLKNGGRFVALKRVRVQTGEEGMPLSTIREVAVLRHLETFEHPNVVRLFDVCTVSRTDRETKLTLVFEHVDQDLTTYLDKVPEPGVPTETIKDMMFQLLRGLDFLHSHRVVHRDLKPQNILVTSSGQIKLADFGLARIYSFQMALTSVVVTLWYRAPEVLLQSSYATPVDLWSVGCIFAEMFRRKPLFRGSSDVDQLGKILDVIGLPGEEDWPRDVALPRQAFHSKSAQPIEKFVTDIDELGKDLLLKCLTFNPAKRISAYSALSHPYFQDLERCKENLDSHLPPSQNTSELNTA

At CDK6, `CC(=O)c1c(C)c2cnc(Nc3ccc(N4CCN(C(=O)N5CCN(c6ccc7c(c6)CN(C6CCC(=O)NC6=O)C7=O)CC5)CC4)cn3)nc2n(C2CCCC2)c1=O` (centres unmarked) [Compound 2, 3-(5-(4-(4-(6-((6-acetyl-8-cyclopentyl-5-methyl-7-oxo-7,8-dihydropyrido[2,3-d]pyrimidin-2-yl)amino)pyridin-3-yl)piperazine-1-carbonyl)piperazin-1-yl)-1-oxoisoindolin-2-yl)piperidine-2,6-dione] yielded a DC50 above 200 nM and a Dmax above 60%. For the same compound, in assay [1], the IC50 fell in the range of 50 to 200 nM. At CDK4, this compound gave a DC50 above 200 nM and a Dmax above 60%.

`CC(=O)c1c(C)c2cnc(Nc3ccc(C4CCN(C(=O)C5CN(c6ccc(NC7CCC(=O)NC7=O)cc6)C5)CC4)cn3)nc2n(C2CCCC2)c1=O` (centres unmarked) [Compound 132, 3-((4-(3-(4-(6-((6-acetyl-8-cyclopentyl-5-methyl-7-oxo-7,8-dibydropyrido[2,3-d]pyrimidin-2-yl)amino)pyridin-3-yl)piperidine-1-carbonyl)azetidin-1-yl)phenyl)amino) piperidine-2,6-dione]: the 50% degradation concentration (DC50) on CDK6 was below 50 nM; at CDK4 it was 50 to 200 nM. Moreover, the Dmax at CDK6 and on CDK4 was above 80% throughout. In addition, in assay [1], the IC50 was below 50 nM.

`CC(=O)c1c(C)c2cnc(Nc3ccc(N4CCN(CCN(C)c5ccc6c(c5)CN(C5CCC(=O)NC5=O)C6=O)CC4)cn3)nc2n(C2CCCC2)c1=O` (centres unmarked) [Compound 56, 3-(5-((2-(4-(6-((6-acetyl-8-cyclopentyl-5-methyl-7-oxo-7,8-dihydropyrido[2,3-d]pyrimidin-2-yl)amino)pyridin-3-yl)piperazin-1-yl)ethyl)(methyl)amino)-1-oxoisoindolin-2-yl)piperidine-2,6-dione]: on CDK6, the DC50 is 50 to 200 nM and the Dmax is above 60%. The IC50 in assay [1] lay within 50 to 200 nM. Further, on CDK4, the DC50 was in the range of 50 to 200 nM and the Dmax is above 60%.

As for `CC(=O)c1c(C)c2cnc(Nc3ccc(N4CCN(C(=O)N5CCN(CCC6CCN(c7ccc8c(c7)C(=O)N(C7CCC(=O)NC7=O)C8=O)CC6)CC5)CC4)cn3)nc2n(C2CCCC2)c1=O` (centres unmarked) [Compound 23, 5-(4-(2-(4-(4-(6-((6-acetyl-8-cyclopentyl-5-methyl-7-oxo-7,8-dihydropyrido[2,3-d]pyrimidin-2-yl)amino)pyridin-3-yl)piperazine-1-carbonyl)piperazin-1-yl)ethyl)piperidin-1-yl)-2-(2,6-dioxopiperidin-3-yl) isoindoline-1,3-dione], the DC50 on CDK6 and on CDK4 was above 200 nM each time. The Dmax on CDK6 and on CDK4 was above 60% throughout. In addition, the IC50 in assay [1] was above 200 nM.

`CC(=O)c1c(C)c2cnc(Nc3ccc(N4CCN(C(=O)N5CCN(CC6CCN(c7ccc8c(c7)CN(C7CCC(=O)NC7=O)C8=O)CC6)CC5)CC4)cn3)nc2n(C2CCCC2)c1=O` (centres unmarked) [Compound 16, 3-(5-(4-((4-(4-(6-((6-acetyl-8-cyclopentyl-5-methyl-7-oxo-7,8-dihydropyrido[2,3-d]pyrimidin-2-yl)amino)pyridin-3-yl)piperazine-1-carbonyl)piperazin-1-yl)methyl)piperidin-1-yl)-1-oxoisoindolin-2-yl)piperidine-2,6-dione]: at CDK6, the DC50 was above 200 nM and the Dmax was above 50%. In assay [1], the IC50 was above 200 nM. On CDK4, this compound returned a DC50 above 200 nM and a Dmax above 50%.

Take `CC(=O)c1c(C)c2cnc(Nc3ccc(N4CCN(C(=O)N5CCC(CCC6CCN(c7ccc8c(c7)C(=O)N(C7CCC(=O)NC7=O)C8=O)CC6)CC5)CC4)cn3)nc2n(C2CCCC2)c1=O` (centres unmarked) [Compound 25, 5-(4-(2-(1-(4-(6-((6-acetyl-8-cyclopentyl-5-methyl-7-oxo-7,8-dihydropyrido[2,3-d]pyrimidin-2-yl)amino)pyridin-3-yl)piperazine-1-carbonyl)piperidin-4-yl)ethyl)piperidin-1-yl)-2-(2,6-dioxopiperidin-3-yl)isoindoline-1,3-dione]: on CDK6, the half-maximal degradation concentration (DC50) lay in the range of 50 to 200 nM and the Dmax is above 60%. Further, in assay [1], the IC50 lay within 50 to 200 nM. At CDK4, the DC50 is above 200 nM and the Dmax was above 60%.

Consider `CC(=O)c1c(C)c2cnc(Nc3ccc(N4CCN(C(=O)N5CCC(C6CCN(c7ccc8c(c7)C(=O)N(C7CCC(=O)NC7=O)C8=O)CC6)CC5)CC4)cn3)nc2n(C2CCCC2)c1=O` (centres unmarked) [Compound 9, 5-(1′-(4-(6-((6-acetyl-8-cyclopentyl-5-methyl-7-oxo-7,8-dihydropyrido[2,3-d]pyrimidin-2-yl)amino)pyridin-3-yl)piperazine-1-carbonyl)-[4,4′-bipiperidin]-1-yl)-2-(2,6-dioxopiperidin-3-yl)isoindoline-1,3-dione], for which the DC50 on CDK6 and at CDK4 was above 200 nM in each case. Also, the Dmax on CDK6 and at CDK4 was above 50% throughout. In addition, the IC50 in assay [1] is above 200 nM.

On to `Cc1nc2c(F)cc(-c3nc(Nc4ccc(CC5CCN(CC6CCN(c7ccc(NC8CCC(=O)NC8=O)cc7)CC6)CC5)cn4)ncc3F)cc2n1C(C)C` (centres unmarked) [Compound 160, 3-((4-(4-((4-((6-((5-fluoro-4-(4-fluoro-1-isopropyl-2-methyl-1H-benzo[d]imidazol-6-yl)pyrimidin-2-yl)amino)pyridin-3-yl)methyl)piperidin-1-yl)methyl)piperidin-1-yl)phenyl)amino) piperidine-2,6-dione], for which, at CDK6, the DC50 was below 50 nM and the Dmax is above 80%. For the same compound, the IC50 in assay [1] was below 50 nM. At CDK4, this compound displayed a DC50 below 50 nM and a Dmax above 80%.

As for `CC(=O)c1c(C)c2cnc(Nc3ccc(N4CCN(CC5CCN(C(=O)N6CCC(N7CCN(c8ccc9c(c8)C(=O)N(C8CCC(=O)NC8=O)C9=O)CC7)CC6)CC5)CC4)cn3)nc2n(C2CCCC2)c1=O` (centres unmarked) [Compound 89, 5-(4-(1-(4-((4-(6-((6-acetyl-8-cyclopentyl-5-methyl-7-oxo-7,8-dihydropyrido[2,3-d]pyrimidin-2-yl)amino)pyridin-3-yl)piperazin-1-yl)methyl)piperidine-1-carbonyl)piperidin-4-yl)piperazin-1-yl)-2-(2,6-dioxopiperidin-3-yl)isoindoline-1,3-dione], on CDK6, the DC50 was above 200 nM and the Dmax is above 60%. Also, in assay [1], the IC50 was 50 to 200 nM. Besides, at CDK4, the DC50 lay within 50 to 200 nM and the Dmax was above 60%.

As to `CC(=O)c1c(C)c2cnc(Nc3ccc(C4CCN(CC5CN(c6ccc7c(c6)C(=O)N(C6CCC(=O)NC6=O)C7=O)C5)CC4)cn3)nc2n(C2CCCC2)c1=O` (centres unmarked) [Compound 125, 5-(3-((4-(6-((6-acetyl-8-cyclopentyl-5-methyl-7-oxo-7,8-dihydropyrido[2,3-d]pyrimidin-2-yl)amino)pyridin-3-yl)piperidin-1-yl)methyl)azetidin-1-yl)-2-(2,6-dioxopiperidin-3-yl)isoindoline-1,3-dione], on CDK6, the DC50 was below 50 nM and the Dmax is above 80%. Also, in assay [1], the IC50 is below 50 nM. On CDK4, this compound gave a DC50 below 50 nM and a Dmax above 80%.

`Cc1nc2c(F)cc(-c3nc(Nc4ccc(CN5CCN(CCCNc6cccc7c6C(=O)N(C6CCC(=O)NC6=O)C7=O)CC5)cn4)ncc3F)cc2n1C(C)C` (centres unmarked) [Compound 100, 2-(2,6-dioxopiperidin-3-yl)-4-((3-(4-((6-((5-fluoro-4-(4-fluoro-1 isopropyl-2-methyl-1H-benzo[d]imidazol-6-yl)pyrimidin-2-yl)amino)pyridin-3-yl)methyl)piperazin-1-yl)propyl)amino) isoindoline-1,3-dione]: the DC50 at CDK6 and at CDK4 was 50 to 200 nM in each case. Further, the Dmax at CDK6 and at CDK4 was above 80% in each case. In assay [1], the IC50 is below 50 nM. Besides, in assay [1] (Mino cells, 0-1 μM, result in words), the “inhibition of cell proliferation of Mino cells” value is listed as “dose-dependent inhibition of cell proliferation”.

With `Cc1nc2c(F)cc(-c3nc(Nc4ccc(CN5CCN(C6CN(c7cccc8c7C(=O)N(C7CCC(=O)NC7=O)C8=O)C6)CC5)cn4)ncc3F)cc2n1C(C)C` (centres unmarked) [Compound 98, 2-(2,6-dioxopiperidin-3-yl)-4-(3-(4-((6-((5-fluoro-4-(4-fluoro-1 isopropyl-2-methyl-1H-benzo[d]imidazol-6-yl)pyrimidin-2-yl)amino)pyridin-3-yl)methyl)piperazin-1-yl)azetidin-1-yl)isoindoline-1,3-dione], at CDK6, the DC50 lay within 50 to 200 nM and the Dmax is above 80%. In addition, in assay [1], the IC50 lay within 50 to 200 nM. On CDK4, this compound had a DC50 of 50 to 200 nM and a Dmax above 80%.

Turning to `CC(=O)c1c(C)c2cnc(Nc3ccc(N4CCN(CCC5CCN(c6ccc7c(c6)CN(C6CCC(=O)NC6=O)C7=O)CC5)CC4)cn3)nc2n(C2CCCC2)c1=O` (centres unmarked) [Compound 70, 3-(5-(4-(2-(4-(6-((6-acetyl-8-cyclopentyl-5-methyl-7-oxo-7,8-dihydropyrido[2,3-d]pyrimidin-2-yl)amino)pyridin-3-yl)piperazin-1-yl)ethyl)piperidin-1-yl)-1-oxoisoindolin-2-yl) piperidine-2,6-dione], at CDK6, the 50% degradation concentration (DC50) lay within 50 to 200 nM and the Dmax was above 60%. For the same compound, the IC50 in assay [1] lay within 50 to 200 nM. On CDK4, this compound had a DC50 of 50 to 200 nM and a Dmax above 50%.

As to `CC(=O)c1c(C)c2cnc(Nc3ccc(N4CCN(C5CCN(C(=O)Nc6ccc7c(c6)CN(C6CCC(=O)NC6=O)C7=O)CC5)CC4)cn3)nc2n(C2CCCC2)c1=O` (centres unmarked) [Compound 40, 4-(4-(6-((6-acetyl-8-cyclopentyl-5-methyl-7-oxo-7,8-dibydropyrido[2,3-d]pyrimidin-2-yl)amino)pyridin-3-yl)piperazin-1-yl)-N-(2-(2,6-dioxopiperidin-3-yl)-1-oxoisoindolin-5-yl)piperidine-1-carboxamide], at CDK6, the DC50 was in the range of 50 to 200 nM and the Dmax is above 80%. In addition, the IC50 in assay [1] was below 50 nM. At CDK4, the DC50 fell in the range of 50 to 200 nM and the Dmax was above 60%.
